In data set [1] the test system is Mycobacterium tuberculosis. As to the kind of experiment: Antitubercular activity against Mycobacterium tuberculosis H37Rv ATCC 27294 after 5 days under aerobic condition. Format: functional, organism-based. As to conditions: for IC50 / IC90 / MIC: H37Rv ATCC 27294, 120 h; for Activity: TDE = time-dependent effect.
Data set [2] can be described thus: Solubility of compound in Middlebrook 7H9 broth media at pH 6.4 at 200 uM after 90 mins by UV-VIS spectrophotometric method. Format: physicochemical. As to conditions: buffer, pH 6.4, 1.5 h.
Data set [3] relates to Mycobacterium tuberculosis. As to the kind of experiment: Antitubercular activity against Mycobacterium tuberculosis H37Rv ATCC 27294 after 10 days under low oxygen condition followed by incubation under aerobic condition for 28 hrs by LORA. Format: functional, organism-based.
In data set [4] the test system is Mycobacterium tuberculosis. As to the kind of experiment: Bactericidal activity against Mycobacterium tuberculosis H37Rv ATCC 27294 assessed as concentration required for 2 log kill after 21 days under aerobic condition by colony forming assay. Format: functional. As to conditions: for MBC: H37Rv ATCC 27294, 504 h; for Activity: TDE = time-dependent effect.
Data set [5] concerns Mycobacterium tuberculosis. In words: Potency index, ratio of compound MIC to metronidazole MIC for antitubercular activity against Mycobacterium tuberculosis H37Rv ATCC 27294 under low oxygen condition. Format: functional.
Data set [6] deals with THP-1. In words: Cytotoxicity against human THP1 cells after 3 days by luminescence assay. Format: cell-based. The conditions noted are these: THP-1, 72 h.
Data set [7] relates to L6. As to the kind of experiment: Cytotoxicity against rat L6 cells after 2 days by CellTiter-Glo luminescent cell viability assay. Format: ADME, cell-based. The conditions noted are these: L6, 48 h. (Cellular ATP, detected with luciferase, serves as a proxy for viable cell number.)
The subject of data set [8] is Mycobacterium tuberculosis. In words: Antitubercular activity against luxABCDE expressing Mycobacterium tuberculosis H37Rv infected in human THP1 cells measured after 3 days by luminescence assay. Format: functional, organism-based. As to conditions: THP-1, 72 h.
The test system of data set [9] is Vero. In words: Cytotoxicity against African green monkey Vero cells after 2 days by CellTiter-Glo luminescent cell viability assay. Format: ADME, cell-based. As to conditions: Chlorocebus sabaeus, 48 h.
The test system of data set [10] is HepG2. As to the kind of experiment: Cytotoxicity against human HepG2 cells at 100 uM after 3 days by CellTiter-Glo luminescent cell viability assay. Format: cell-based. As to conditions: HepG2, 72 h.
A short description of data set [11]: Protein binding in human plasma at 5 uM after 4 hrs by LC-MS/MS analysis.
The nature of data set [12]: Half life in human liver S9 microsomes at 1 uM in presence of NADPH by LC-MS/MS analysis.
Data set [13] in a line: Half life in human liver S9 microsomes at 1 uM in absence of NADPH by LC-MS/MS analysis.

The values that follow come from ChEMBL document CHEMBL4177599, “The antitubercular activity of various nitro(triazole/imidazole)-based compounds” (Bioorg Med Chem, 2017).

Converted amounts (≈) assume the structure as drawn. Some results are limits rather than exact numbers.

As to `O=C(Cn1cnc([N+](=O)[O-])n1)Nc1cc(-c2ccc(Cl)cc2)no1`, in [1], the IC50 (as a rule, the concentration that gives 50% inhibition) was found to be 96 µM; the 90% effect level (IC90) was put at 140 µM; the MIC – broadly, the lowest concentration that inhibits growth of the organism – stood at 200 µM (≈ 69.7 µg/mL).
For the molecule `Cc1nc([N+](=O)[O-])cn1CCCNC(=O)c1sc2ccccc2c1Cl`, in [1], inhibition was half-maximal at 175 µM (IC50), the 90% effect concentration (IC90) (commonly the point of the concentration-response curve where the effect stands at 90%) is more than 200 µM and the MIC was more than 200 µM. Further, in data set [2], the solubility result is listed as “Soluble”.
With `O=C(CCn1cnc([N+](=O)[O-])n1)Nc1ccc(Oc2ccc(F)cc2)cc1`, the IC50 is 22 to 25 µM in data set [1]; 25 µM in data set [3]; 21 µM in [6]; 23 µM in data set [7]; 3.8 µM in data set [8]. In addition, the IC90 in [1] was 28 to 34 µM; in data set [3], 28 µM; in data set [8], 16 µM. Besides, the values for the MIC in data set [1] and in [3] were 31 to 32 µM (≈ 11.5 to 11.9 µg/mL) and 31 µM (≈ 11.5 µg/mL), respectively. Further, the Activity entry in data set [1] and in data set [4] was “Tde” throughout. In addition, the MBC (commonly the smallest concentration meeting the test's criterion for killing) in data set [4] amounted to 20 µM (≈ 7.43 µg/mL). For the same molecule, the Ratio in data set [5] was 6 - 9.
Consider `CC(O)(Cn1cnc([N+](=O)[O-])n1)c1ccc(-c2ccc(C#N)cc2)cc1` (stereo not given), for which the IC50 in data set [1] is 55 µM; in data set [3], 73 µM; in [9], 66 µM; in [7], 86 µM. The figures for the 90% effect concentration (IC90) in [1] and in [3] were 125 µM and 176 µM, respectively. Besides, the MIC in data set [1] and in data set [3] was more than 200 µM throughout. For the same molecule, in data set [4], the MBC was found to be 100 µM (≈ 34.9 µg/mL).
Regarding `N#Cc1ccc(-c2ccc(NC(=O)Cn3cnc([N+](=O)[O-])n3)cc2)cc1`, in data set [1], the IC50 was more than 200 µM, the IC90 was more than 200 µM and the MIC was more than 200 µM. This molecule also displayed an MIC in data set [3] of 52.1 µM (≈ 18.1 µg/mL).
Take `COCCc1ccc(OCC(O)CNC(C)C)cc1.COCCc1ccc(OCC(O)CNC(C)C)cc1.O=C(O)/C=C/C(=O)O` (racemic) [METOPROLOL FUMARATE]: the solubility result in [2] was “Soluble”.
In data set [1], `O=C(CCn1cnc([N+](=O)[O-])n1)Nc1cc(-c2ccc(F)cc2)on1` gave an IC50 of 66 µM, an IC90 of more than 100 µM and an MIC of more than 200 µM.
In [1], `Cc1ncc([N+](=O)[O-])n1CCO` [METRONIDAZOLE] had an IC50 of more than 200 µM, an IC90 of more than 200 µM and an MIC of more than 200 µM. In [3], this molecule had an IC50 of 14 to 36 µM, an IC90 of 33 to 82 µM and an MIC of 88 to 200 µM (≈ 15.1 to 34.2 µg/mL).
In [1], `CO[C@H]1/C=C/O[C@@]2(C)Oc3c(C)c(O)c4c(O)c(c(/C=N/N5CCN(C)CC5)c(O)c4c3C2=O)NC(=O)/C(C)=C\C=C\[C@H](C)[C@H](O)[C@@H](C)[C@@H](O)[C@@H](C)[C@H](OC(C)=O)[C@@H]1C` [RIFAMPIN] showed an IC50 of 0.0046 to 0.0061 µM, an IC90 of 0.0049 to 0.014 µM and an MIC of 0.015 to 0.033 µM (≈ 0.0123 to 0.0272 µg/mL). Moreover, in data set [3], the IC50 fell in the range of 0.00072 to 0.015 µM, the IC90 is 0.0037 to 0.049 µM and the minimum inhibitory concentration (MIC) was 0.022 to 0.18 µM (≈ 0.0181 to 0.148 µg/mL).
In data set [1], `Cc1nc([N+](=O)[O-])cn1CCCNC(=O)c1cc2ccccc2s1` had an IC50 of more than 200 µM, an IC90 of more than 200 µM and an MIC of more than 200 µM. Moreover, the solubility entry in [2] is recorded as “Soluble”.
Molecule `CN[C@@H]1C[C@H]2O[C@@](C)([C@@H]1OC)n1c3ccccc3c3c4c(c5c6ccccc6n2c5c31)C(=O)NC4` [STAUROSPORINE] had an IC50 in [10] of 0.018 µM.
Regarding `O=C(CCCN1CCC(O)(c2ccc(Cl)cc2)CC1)c1ccc(F)cc1` [HALOPERIDOL], the solubility result in data set [2] was “Insoluble”.
In [1], `O=C(Cn1cnc([N+](=O)[O-])n1)Nc1nc(-c2ccc(Cl)cc2)cs1` registered an IC50 of 34.2 µM, an IC90 of 34.9 µM and an MIC of 34.9 µM (≈ 12.7 µg/mL). Besides, the solubility result in data set [2] was “Insoluble”.
Regarding `O=C(Cn1cnc([N+](=O)[O-])n1)N1CCN(C(c2ccccc2)c2ccc(Cl)cc2)CC1` (stereo not given), the IC50 in data set [1] was 38 µM; in data set [3], 51 µM; in [9], 21 µM; in [7], 32 µM; in data set [8], 8 µM. The results for the IC90 in [1], in [3] and in data set [8] were 48 µM, 57 µM and 11 µM, respectively. Besides, the MIC stood at 50 µM (≈ 22 µg/mL) in [1] and 65 µM (≈ 28.7 µg/mL) in [3]. Moreover, the MBC in data set [4] stood at 100 µM (≈ 44.1 µg/mL).
In data set [1], `Cc1ccoc1C(=O)NCCCn1cnc([N+](=O)[O-])n1` registered an IC50 of 41 µM, an IC90 of 54 µM and an MIC of 54.5 µM (≈ 15.2 µg/mL). The solubility result in data set [2] is reported as “Soluble”.
For `O=C(Cn1cnc([N+](=O)[O-])n1)N1CCN(Cc2ccc(C(F)(F)F)cc2)CC1`, the IC50 in [1] was 25 µM; in [3] it was 62 µM; in [6], more than 50 µM; in data set [8], 13 µM; in data set [10] it was more than 100 µM. Besides, the IC90 in data set [1] came out at 28 µM; in data set [3], 100 µM; in data set [8] it was 14 µM. In addition, the values for the MIC in [1] and in data set [3] were 27 µM (≈ 10.8 µg/mL) and 170 µM (≈ 67.7 µg/mL), respectively. Also, the MBC in data set [4] was found to be 20 µM (≈ 7.97 µg/mL). Further, in data set [11], the fraction unbound (in general, free concentration divided by total concentration) at 4 h, 5 µM was 0.179. In addition, the half-life at 1 µM in data set [12] and in data set [13] was more than 3 h throughout.
With `O=C(Cn1cnc([N+](=O)[O-])n1)Nc1ccc(Cc2ccccc2)cc1`, the IC50 in data set [1] came out at 30 µM; in data set [3] it was 39 µM; in data set [6], 47 µM; in data set [8] it was 6.2 µM. Further, the IC90 in data set [1] worked out at 38 µM; in [3], 59 µM; in data set [8], 12 µM. The MIC came to 45 µM (≈ 15.2 µg/mL) in data set [1] and 94 µM (≈ 31.7 µg/mL) in data set [3]. Also, in data set [4], the MBC came out at 20 µM (≈ 6.75 µg/mL).
Consider `CC(=O)N1CCN(c2ccc(OCC3COC(Cn4ccnc4)(c4ccc(Cl)cc4Cl)O3)cc2)CC1` (stereo not given) [KETOCONAZOLE], for which the solubility result in data set [2] is reported as “Insoluble”.
Take `O=C(CCn1cnc([N+](=O)[O-])n1)Nc1ccc(Oc2ccccc2)cc1`: the IC50 in [1] was 28 to 32 µM; in data set [3], 32 µM; in data set [6], 33 µM; in data set [7], 32 µM; in [8], 5 µM. Moreover, the IC90 in data set [1] is 39 to 45 µM; in [3], 49 µM; in [8], 17 µM. Moreover, the values for the MIC in [1] and in data set [3] were 48 µM (≈ 17 µg/mL) and 81 µM (≈ 28.6 µg/mL), respectively. For the same molecule, the Activity entry in [1] and in [4] was “Tde” each time. Further, the MBC in data set [4] is 20 µM (≈ 7.07 µg/mL).
Turning to `O=C(Cn1cnc([N+](=O)[O-])n1)Nc1cccc(-c2ccccc2)c1`, the IC50 was 27 µM in data set [1]; 30 µM in data set [3]; more than 50 µM in data set [6]; 11 µM in data set [8]; 46 µM in [10]. Further, the IC90 in [1] came to 39 µM; in [3], 46 µM; in data set [8], 12 µM. In addition, the figures for the MIC in data set [1] and in data set [3] were 31 µM (≈ 10 µg/mL) and 73 µM (≈ 23.6 µg/mL), respectively. For the same molecule, the MBC in data set [4] was 20 µM (≈ 6.47 µg/mL). In addition, the fraction unbound at 4 h, 5 µM in data set [11] is 0.028. Besides, the half-life (commonly how long it takes for the measured level to halve) at 1 µM in data set [13] came out at 1.32 h.
With `O=C(NCCCn1cnc([N+](=O)[O-])n1)c1cc2ccccc2s1`, in data set [1], half-maximal inhibition (IC50) was put at 107 µM, the IC90 is more than 200 µM and the MIC is more than 200 µM. Further, the solubility entry in data set [2] was “Insoluble”.
